Laboratory results from patent US9255272B2, “Use of inhibitors of leukotriene B4 receptor BLT2 for treating asthma” (Korea University Research & Business Foundation, priority 2007, dated 2016).

Tested on: OVA-challenged mice
Assay: Eosinophil infiltration in BAL fluid of OVA-challenged mice
Format: in vivo, mouse
Settings: C57BL/6 mice, 1.6 mg/kg i.v. 24 hr and 1 hr before 10% OVA challenge, 48 hr
Method: Female BALB/c mice and C57BL/6 mice (7 weeks old; 18-20 g) were obtained from Orientbion Inc. (Seoungnam, Korea). Sensitization and challenge were carried out as described previously with some modification (28). Briefly, female C57BL/6 mice (7 weeks old; 18-20 g) were immunized by intraperitoneal (i.p.) injection of 200 μg ovalbumin (OVA) emulsified in 2.5 mg of adjuvant aluminum hydroperoxide gel (alum) (Pierce, Rockford, Ill.). A second i.p. injection of 20 μg OVA adsorbed onto alum (2.5 mg) was administered 10 days later. After an additional 10 days, mice were exposed to an aerosol of 1% OVA in saline for 30 min daily on 3 consecutive days. On day 25, mice were finally challenged by provocation with 10% OVA aerosol. For inhibition experiments, sense or antisense BLT2 (1.6 mg/kg) was injected intravenously 24 h and then 1 h before the 10% OVA challenge. The mice were then killed on day 27 to assess asthmatic phenotypes. Antisense BLT2 oligonucleotide (5′-[…]-3′ (SEQ ID NO: 15)), sense BLT2 oligonucleotide (5′-[…]-3′ (SEQ ID NO: 16)).
Inflammatory cells in the BAL fluid were collected by centrifugation (1,000 g for 3 min) and washed once in PBS. Cells were counted using a hemocytometer, and viability was assessed by trypan blue exclusion. […]

In the case of “antisense BLT2: Antisense BLT2 oligonucleotide 5′-GCTCAGTAGTGTCTCATTCC-3′ (SEQ ID NO: 15) (listed as DNA, chemistry not fully specified)”, the “reduction of eosinophil infiltration in BAL fluids” value is reported as ~87%.
